Assay: TGA test of thermal stability of emulsifier fatty acids
Assay type: physicochemical
Conditions: for Temperature at which loss of 5% by weight (w/w) occurs / Temperature at which loss of 50% by weight (w/w) occurs: Table 2; for Thermal stability (TGA comparison): result in words
Description: The present inventors first performed a process of selecting emulsifier candidates to substitute for a conventionally used fatty acid-based emulsifier so as to change the emulsifier among the aforementioned materials, and then selected an emulsifier having relatively high thermal stability through a boiling point test and a TGA test in accordance with the purpose of the present invention of reducing the amount of gas generated in high-temperature extrusion and injection-molding processes.
FIG. 2 illustrates TGA test comparison results of hydrogenated ricinoleic acid as a chain-type fatty acid including a functional group according to the present invention, stearic acid as saturated fatty acid not including a branch group or a functional group, and fatty acid (FAD acid: mixture of palmitic acid, oleic acid, and stearic acid) included in a conventionally used fatty acid-based emulsifier.

Row | SMILES | Temperature at which loss of 5% by weight (w/w) occurs (TGA) [°C] | Temperature at which loss of 50% by weight (w/w) occurs (TGA) [°C] | Thermal stability (TGA comparison) | Loss amount at 270° C. (TGA, 270° C., Table 1) [% by weight] | Temperature at which loss of 10% by weight occurs (TGA, Table 1) [° ° C.]
1 | CCCCCCC(O)CCCCCCCCCCC(=O)O (centres unmarked) [Hydrogenated ricinoleic acid, 12-hydroxy octadecanoic acid] | 263 | 455 | superior to stearic acid and fatty acid | – | –
2 | CCCCCC[C@@H](O)C/C=C\CCCCCCCC(=O)O [Ricinoleic acid, ricinoleic acid] | – | – | superior to fatty acid | 9 | 273
3 | CCCCCCCCCCCCCCCCCC(=O)O [Stearic acid, stearic acid, reference compound] | 237 | 289 | – | – | –

From patent publication US10508168B2, “Thermoplastic polymer, method of preparing thermoplastic polymer, and thermoplastic polymer composition including thermoplastic polymer” (LG CHEM, LTD., priority 2015, dated 2019)
